Experiments:
[1] = Separation of binary mixture of rare-earth metals by precipitation from solution using L1 (Example 7); format: physicochemical; conditions: supernatant
Procedure: Two series of reaction mixtures were prepared, where one rare-earth metal was held constant (Gd or Lu) while the other was a variable rare-earth metal element (except Pm). […] The well plate was sealed with transparent adhesive tape to prevent evaporation and was anchored to a shaker. The well-plate was shaken for 5 days at room temperature at 900 rpm.

[2] = Ultrafiltration to remove benzoic acid and effect precipitation of L5 complexes (Example 26); format: physicochemical
Procedure: Stock solutions were pipetted into a 20 mL glass vial to prepare the reaction mixture: • 1. 938 μL 196 mM aqueous chelator L5 (pH=4) • 2. 836 μL 1000 mM aqueous benzoic acid (stock solution containing 1 equivalent NaOH) • 3. 8000 μL H2O • 4. 952 μL 175.5 mM aqueous LnCl3 solution (from a stock solution containing a mixture of Ln=Nd, Pr, Tb, and Dy, in a ratio of 3.3:1:1:1, Nd:Pr:Tb:Dy)
The reaction solution was then titrated to pH 6.5 by addition of aqueous 2 M NaOH. The solution was stirred on a magnetic stir-plate at room temperature for 1 hour, and the precipitate was removed from the solution by filtration through a 0.45 μtm regenerated cellulose syringe filter. From this filtered solution, 1 mL was set aside for elemental analysis as the “initial” solution, 1 mL was set aside as a “control” solution in a clean 4 mL glass vial with a PTFE-coated stir bar to be stirred at 600 rpm at room temperature on a magnetic stirrer, and the remaining 9 mL were diluted slightly by addition of 2 mL H2O, then filtered on an ultrafiltration system with a nanofiltration membrane with molecular weight cut-off of 100-250 Da (NFS membrane, Synder Filtration, CA, USA), 4 bar N2 to pressurize the system, magnetic stiffing at 250 rpm, and continual addition of water to replace the filtered volume. The filtrate was collected in an Erlenmeyer flask, and a total volume of 50 mL was filtered over 11 hours. After this time, the “retained” reaction mixture, now having a volume of 10.5 mL and with some precipitate present, was transferred to a clean 20 mL glass vial and stirred by PTFE-coated stir bar on a magnetic stirrer at 600 rpm for an additional 10 hours, as was the control solution. After this additional time, samples of both the control solution and the retained solution from the ultrafiltration were prepared for elemental analysis by filtration through 0.45 μm nylon syringe filters. The initial, control, and retained solutions were then analysed by ICP-OES for determination of absolute Nd, Pr, Dy, and Tb content.

[3] = control solution, stirred without ultrafiltration
[4] = initial solution (L5 + benzoic acid, pH 6.5, filtered)
[5] = retained solution after ultrafiltration (100-250 Da membrane)
[6] = retained*, recalculated from end volume 10.5 to original 9.0 mL

With O=C(O)CN1CCN(CC(=O)O)CCN(Cc2ccccc2)CCN(CC(=O)O)CC1 [L1, 2,2′,2″-(10-benzyl-1,4,7,10-tetraazacyclododecane-1,4,7-triyl)triacetic Acid] the “[mM] Gd” value ([1]; M1=Ce, M2=Gd) was 0.149 mM, the “[mM] M1” value ([1]; M1=Ce, M2=Gd) was 0.349 mM and the “[mM] Lu” value ([1]; M1=Ce, M2=Lu) was 5.174 mM. The “[mM] M1” value ([1]; M1=Ce, M2=Lu) was 5.195 mM, the “[mM] Gd” value ([1]; M1=Dy, M2=Gd) was 0.196 mM and the “[mM] M1” value ([1]; M1=Dy, M2=Gd) was 0.344 mM. The “[mM] Lu” value ([1]; M1=Dy, M2=Lu) was 5.252 mM, the “[mM] M1” value ([1]; M1=Dy, M2=Lu) was 5.268 mM and the “[mM] Gd” value ([1]; M1=Er, M2=Gd) was 5.127 mM. For the same molecule, the “[mM] M1” value ([1]; M1=Er, M2=Gd) was 5.697 mM, the “[mM] Lu” value ([1]; M1=Er, M2=Lu) was 5.298 mM and the “[mM] M1” value ([1]; M1=Er, M2=Lu) was 5.558 mM. For the same molecule, the “[mM] Gd” value ([1]; M1=Eu, M2=Gd) was 0.141 mM, the “[mM] M1” value ([1]; M1=Eu, M2=Gd) was 0.157 mM and the “[mM] Lu” value ([1]; M1=Eu, M2=Lu) was 6.000 mM. The “[mM] M1” value ([1]; M1=Eu, M2=Lu) was 5.459 mM, the “[mM] Gd” value ([1]; M1=Gd, M2=Gd) was 0.208 mM and the “[mM] M1” value ([1]; M1=Gd, M2=Gd) was 0.208 mM. For the same molecule, the “[mM] Lu” value ([1]; M1=Gd, M2=Lu) was 3.875 mM, the “[mM] M1” value ([1]; M1=Gd, M2=Lu) was 0.325 mM and the “[mM] Gd” value ([1]; M1=Ho, M2=Gd) was 0.219 mM. For the same molecule, the “[mM] M1” value ([1]; M1=Ho, M2=Gd) was 0.522 mM, the “[mM] Lu” value ([1]; M1=Ho, M2=Lu) was 5.643 mM and the “[mM] M1” value ([1]; M1=Ho, M2=Lu) was 5.424 mM. The “[mM] Gd” value ([1]; M1=La, M2=Gd) was 0.134 mM, the “[mM] M1” value ([1]; M1=La, M2=Gd) was 0.535 mM and the “[mM] Lu” value ([1]; M1=La, M2=Lu) was 5.188 mM. The “[mM] M1” value ([1]; M1=La, M2=Lu) was 4.968 mM, the “[mM] Gd” value ([1]; M1=Lu, M2=Gd) was 0.291 mM and the “[mM] M1” value ([1]; M1=Lu, M2=Gd) was 4.93 mM. The “[mM] Lu” value ([1]; M1=Lu, M2=Lu) was 5.403 mM, the “[mM] M1” value ([1]; M1=Lu, M2=Lu) was 5.403 mM and the “[mM] Gd” value ([1]; M1=Nd, M2=Gd) was 0.169 mM. For the same molecule, the “[mM] M1” value ([1]; M1=Nd, M2=Gd) was 0.249 mM, the “[mM] Lu” value ([1]; M1=Nd, M2=Lu) was 4.301 mM and the “[mM] M1” value ([1]; M1=Nd, M2=Lu) was 0.456 mM. The “[mM] Gd” value ([1]; M1=Pr, M2=Gd) was 0.161 mM, the “[mM] M1” value ([1]; M1=Pr, M2=Gd) was 0.268 mM and the “[mM] Lu” value ([1]; M1=Pr, M2=Lu) was 5.165 mM. The “[mM] M1” value ([1]; M1=Pr, M2=Lu) was 5.067 mM, the “[mM] Gd” value ([1]; M1=Sc, M2=Gd) was 0.295 mM and the “[mM] M1” value ([1]; M1=Sc, M2=Gd) was 5.882 mM. The “[mM] Lu” value ([1]; M1=Sc, M2=Lu) was 4.903 mM, the “[mM] M1” value ([1]; M1=Sc, M2=Lu) was 5.49 mM and the “[mM] Gd” value ([1]; M1=Sm, M2=Gd) was 0.165 mM. The “[mM] M1” value ([1]; M1=Sm, M2=Gd) was 0.179 mM, the “[mM] Lu” value ([1]; M1=Sm, M2=Lu) was 4.229 mM and the “[mM] M1” value ([1]; M1=Sm, M2=Lu) was 0.305 mM. The “[mM] Gd” value ([1]; M1=Tb, M2=Gd) was 0.162 mM, the “[mM] M1” value ([1]; M1=Tb, M2=Gd) was 0.235 mM and the “[mM] Lu” value ([1]; M1=Tb, M2=Lu) was 5.094 mM. For the same molecule, the “[mM] M1” value ([1]; M1=Tb, M2=Lu) was 5.272 mM, the “[mM] Gd” value ([1]; M1=Tm, M2=Gd) was 0.239 mM and the “[mM] M1” value ([1]; M1=Tm, M2=Gd) was 2.653 mM. For the same molecule, the “[mM] Lu” value ([1]; M1=Tm, M2=Lu) was 5.423 mM, the “[mM] M1” value ([1]; M1=Tm, M2=Lu) was 5.453 mM and the “[mM] Gd” value ([1]; M1=Y, M2=Gd) was 0.183 mM. For the same molecule, the “[mM] M1” value ([1]; M1=Y, M2=Gd) was 0.471 mM, the “[mM] Lu” value ([1]; M1=Y, M2=Lu) was 5.188 mM and the “[mM] M1” value ([1]; M1=Y, M2=Lu) was 5.24 mM. The “[mM] Gd” value ([1]; M1=Yb, M2=Gd) was 0.279 mM, the “[mM] M1” value ([1]; M1=Yb, M2=Gd) was 4.218 mM and the “[mM] Lu” value ([1]; M1=Yb, M2=Lu) was 5.148 mM. The “[mM] M1” value ([1]; M1=Yb, M2=Lu) was 5.226 mM.

With O=C(O)CN1CCN(CC(=O)O)CCN(Cc2cccc3ccccc23)CCN(CC(=O)O)CC1 [L5, 2,2′,2″-(10-(naphthalene-1-ylmethyl)-1,4,7,10-tetraazacyklododekane-1,4,7-triyl)triacetic acid] the “concentration Dy” value [2, 3] was 760 µM, the “concentration Nd” value [2, 3] was 1800 µM and the “concentration Pr” value [2, 3] was 400 µM. The “concentration Tb” value [2, 3] was 750 µM, the “concentration sum of M” value [2, 3] was 3710 µM and the “concentration Dy” value [2, 4] was 770 µM. The “concentration Nd” value [2, 4] was 1800 µM, the “concentration Pr” value [2, 4] was 400 µM and the “concentration Tb” value [2, 4] was 760 µM. The “concentration sum of M” value [2, 4] was 3730 µM, the “concentration Dy” value [2, 5] was 440 µM and the “concentration Nd” value [2, 5] was 1030 µM. The “concentration Pr” value [2, 5] was 230 µM, the “concentration Tb” value [2, 5] was 420 µM and the “concentration sum of M” value [2, 5] was 2120 µM. For the same molecule, the “concentration Dy” value [2, 6] was 510 µM, the “concentration Nd” value [2, 6] was 1200 µM and the “concentration Pr” value [2, 6] was 270 µM. For the same molecule, the “concentration Tb” value [2, 6] was 490 µM and the “concentration sum of M” value [2, 6] was 2470 µM.
